According to patent US11613533B2, “Compounds useful for inhibiting RET kinase” (Eli Lilly and Company, priority 2020, dated 2023):
Changes are numbered by the printed parent chain.

Key:
[1] = target: T1, KIF5B-RET mutant form G810S in HEK293 cells (Homo sapiens, UniProt P07949, G810S); assay: RET cell assay (In-Cell Western, phospho-RET Y1062), G810S; format: cell-based; settings: HEK293, doxycycline-induced KIF5B-RET G810S, 1 hr compound treatment; read-out: EC50, inhibition of intracellular autophosphorylation of RET at tyrosine 1062, G810S cells
T1 construct: expressed in transfected cells; host or cells: HEK293; the other entry of the earlier key: KIF5B (P33176, Kinesin-1 heavy chain)
T1 sequence (P07949 713-1063 G810S limits assumed): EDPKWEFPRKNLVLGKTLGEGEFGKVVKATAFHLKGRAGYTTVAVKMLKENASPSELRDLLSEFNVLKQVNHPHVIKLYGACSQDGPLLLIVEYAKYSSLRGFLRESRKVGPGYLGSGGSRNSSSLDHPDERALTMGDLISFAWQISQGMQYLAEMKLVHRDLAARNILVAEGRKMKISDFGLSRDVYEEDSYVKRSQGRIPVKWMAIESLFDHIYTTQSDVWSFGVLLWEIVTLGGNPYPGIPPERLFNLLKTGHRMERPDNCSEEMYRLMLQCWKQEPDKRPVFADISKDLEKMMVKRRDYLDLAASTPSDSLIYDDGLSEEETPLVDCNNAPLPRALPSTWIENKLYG
Procedure: (§1) Compounds of formulas (I), (II), and (III) are screened for their ability to inhibit the intracellular autophosphorylation of RET at tyrosine 1062 as detected by In-Cell Western. HEK293 cells containing a doxycycline-inducible plasmid for inducible expression of KIF5B-RET WT and RET mutant forms V804M and G810S are seeded at 25,000 cells/well into black poly-D-lysine pre-coated 384-well plates (Corning, Catalog No. 356697). Expression of KIF5B-RET is induced with doxycycline at 1 μg/mL and cells are incubated at 37° C. overnight. Compounds are prepared in a threefold serial dilution in DMSO before further diluting 1:100 in media prior to the addition to the cells (0.1% final DMSO concentration). Compound treatment is performed for 1 hr at 37° C. followed by fixation of cells with 4% formaldehyde for 20 min at RT and cell permeabilisation with ice-cold MeOH for 10 min at RT. Cells are incubated with Intercept® blocking buffer (Li—COR, Catalogue No. 927-70010) for 1 hr at RT. Incubation with primary antibodies against human phospho-RET (Y1062) (R&D, Catalogue No. AF5009, 1/250 dilution) and human glyceraldehyde-3-phosphate dehydrogenase (clone 6C5, Merck, Catalog No. MAB374, 1/1000 dilution) are performed overnight at 4° C. Incubation with secondary antibodies IRDye® 800CW goat anti-rabbit IgG (Li—COR, Catalogue No. 926-32211, 1/1000 dilution) and IRDye® 680CW goat anti-mouse IgG (Li—COR, Catalogue No. 926-68070, 1/1000 dilution) are performed for 1 hr at RT. All antibody dilutions are done in Intercept® blocking buffer containing 0.05% Tween20. After washing cells with PBS-T (Cell Signaling technology, Catalogue No. 9809), the images are acquired on a Li—COR Odyssey LCx at 700 and 800 nm. Percent of DMSO control is calculated with 100% signal referring to control conditions containing no compound (0.4% DMSO only) and 0% signal represented by conditions containing control compound. The % of DMSO control values are fit to a 4 parameter logistic curve, and the determined EC50 value is defined as the estimated concentration of inhibitor at the inflexion point of the fitted curve.

[2] = target: T2, KIF5B-RET WT in HEK293 cells (Homo sapiens, UniProt P07949); assay: RET cell assay (In-Cell Western, phospho-RET Y1062), wildtype; format: cell-based; settings: HEK293, doxycycline-induced KIF5B-RET WT, 1 hr compound treatment; read-out: EC50, inhibition of intracellular autophosphorylation of RET at tyrosine 1062, wildtype cells
T2 construct: expressed in transfected cells; host or cells: HEK293; the other entry of the earlier key: KIF5B (P33176, Kinesin-1 heavy chain)
T2 sequence (P07949 713-1063 limits assumed): T1 sequence (P07949 713-1063 G810S limits assumed) with S98G
Procedure: as §1

SMILES: CC(C(=O)Nc1cc(CC(C)(C)C)no1)c1ccc(-c2nn(C(C)C)c(N)c2C(N)=O)cc1 (single isomer, unassigned; isomer 1) [Example 1, 5-Amino-3-[4-(1-[[3-(2,2-dimethylpropyl)-1,2-oxazol-5-yl]carbamoyl]ethyl)phenyl]-1-isopropylpyrazole-4-carboxamide, Isomer 1]
- EC50 [1]: < 100 nM
- EC50 [2]: < 100 nM

SMILES: CCC(C)(C)c1cc(NC(=O)C(C)c2ccc(-c3nn(C(C)C)c(N)c3C(N)=O)cc2)on1 (single isomer, unassigned; isomer 1) [Example 15, 5-Amino-1-isopropyl-3-[4-(1-[[3-(2-methylbutan-2-yl)-1,2-oxazol-5-yl]carbamoyl]ethyl)phenyl]pyrazole-4-carboxamide, Isomer 1]
- EC50 [1]: < 100 nM
- EC50 [2]: < 100 nM

SMILES: CC(C(=O)Nc1cc(C(C)(C)C(F)(F)F)no1)c1ccc(-c2nn(C(C)C)c(N)c2C(N)=O)cc1 (single isomer, unassigned; isomer 1) [Example 17, 5-Amino-1-isopropyl-3-[4-(1-[[3-(1,1,1-trifluoro-2-methylpropan-2-yl)-1,2-oxazol-5-yl]carbamoyl]ethyl)phenyl]pyrazole-4-carboxamide, Isomer 1]
- EC50 [1]: < 100 nM
- EC50 [2]: < 100 nM

SMILES: CC(C(=O)Nc1cc(C2(C)CC2)no1)c1ccc(-c2nn(C(C)C)c(N)c2C(N)=O)cc1 (single isomer, unassigned; isomer 1) [Example 35, 5-Amino-1-isopropyl-3-[4-(1-[[3-(1-methylcyclopropyl)-1,2-oxazol-5-yl]carbamoyl]ethyl)phenyl]pyrazole-4-carboxamide, Isomer 1]
- EC50 [1]: < 100 nM
- EC50 [2]: < 100 nM

SMILES: CC(C(=O)Nc1cc(-c2ccc(Cl)cc2Cl)no1)c1ccc(-c2nn(C(C)C)c(N)c2C(N)=O)cc1 (single isomer, unassigned; isomer 1) [Example 45, 5-Amino-3-[4-(1-[[3-(2,4-dichlorophenyl)-1,2-oxazol-5-yl]carbamoyl]ethyl)phenyl]-1-isopropylpyrazole-4-carboxamide, Isomer 1]
- EC50 [1]: < 100 nM
- EC50 [2]: < 100 nM

SMILES: CC(C(=O)Nc1cc(C(C)(C)C(F)(F)F)on1)c1ccc(-c2nn(C(C)C)c(N)c2C(N)=O)cc1 (single isomer, unassigned; isomer 1) [Example 81, 5-Amino-1-isopropyl-3-[4-(1-[[5-(1,1,1-trifluoro-2-methylpropan-2-yl)-1,2-oxazol-3-yl]carbamoyl]ethyl)phenyl]pyrazole-4-carboxamide, Isomer 1]
- EC50 [1]: < 100 nM
- EC50 [2]: < 100 nM

SMILES: CC(C(=O)Nc1cc(C2CC(C)(C)C2)no1)c1ccc(-c2nn(C(C)C)c(N)c2C(N)=O)cc1 (single isomer, unassigned; isomer 1) [Example 98, 5-Amino-3-[4-[2-[[3-(3,3-dimethylcyclobutyl)isoxazol-5-yl]amino]-1-methyl-2-oxo-ethyl]phenyl]-1-isopropyl-pyrazole-4-carboxamide, Isomer 1]
- EC50 [1]: < 100 nM
- EC50 [2]: < 100 nM

SMILES: CCC(C)(C)c1cc(NC(=O)C(C)c2ccc(-c3nn(C(C)C)c(N)c3C(N)=O)cc2)no1 (single isomer, unassigned; isomer 2) [Example 52, 5-Amino-1-isopropyl-3-[4-(1-[[5-(2-methylbutan-2-yl)-1,2-oxazol-3-yl]carbamoyl]ethyl)phenyl]pyrazole-4-carboxamide, Isomer 2]
- EC50 [1]: < 100 nM
- EC50 [2]: < 100 nM

SMILES: CC(C(=O)Nc1cc(C(C)(C)C(F)(F)F)on1)c1ccc(-c2nn(C(C)C)c(N)c2C(N)=O)nc1 (single isomer, unassigned; isomer 2) [Example 64, 5-Amino-1-isopropyl-3-[5-(1-[[5-(1,1,1-trifluoro-yl)-1,2-oxazol-3-2-methylpropan-2-yl]carbamoyl]ethyl)pyridin-2-yl]pyrazole-4-carboxamide, Isomer 2]
- EC50 [1]: < 100 nM
- EC50 [2]: < 100 nM

SMILES: CCC(C)(C)c1cc(NC(=O)C(C)c2ccc(-c3nn(C(C)C)c(N)c3C(N)=O)nc2)no1 (single isomer, unassigned; isomer 2) [Example 66, 5-Amino-1-isopropyl-3-[5-(1-[[5-(2-methylbutan-2-yl)-1,2-oxazol-3-yl]carbamoyl]ethyl)pyridin-2-yl]pyrazole-4-carboxamide, Isomer 2]
- EC50 [1]: < 100 nM
- EC50 [2]: < 100 nM

SMILES: CC(C(=O)Nc1cc(C(C)(C)CC(F)(F)F)on1)c1ccc(-c2nn(C(C)C)c(N)c2C(N)=O)nc1 (single isomer, unassigned; isomer 2) [Example 68, 5-Amino-1-isopropyl-3-(5-(1-oxo-1-((5-(4,4,4-trifluoro-2-methylbutan-2-yl)isoxazol-3-yl)amino)propan-2-yl)pyridin-2-yl)-1H-pyrazole-4-carboxamide, Isomer 2]
- EC50 [1]: < 100 nM
- EC50 [2]: < 100 nM

SMILES: CC(C(=O)Nc1cc(C(C)(C)C(C)(F)F)on1)c1ccc(-c2nn(C(C)C)c(N)c2C(N)=O)nc1 (single isomer, unassigned; isomer 2) [Example 70, 5-Amino-3-[5-(1-[[5-(3,3-difluoro-2-methylbutan-2-yl)-1,2-oxazol-3-yl]carbamoyl]ethyl)pyridin-2-yl]-1-isopropylpyrazole-4-carboxamide, Isomer 2]
- EC50 [1]: < 100 nM
- EC50 [2]: < 100 nM

SMILES: CC(C(=O)Nc1cc(C(C)(C)C(C)(F)F)on1)c1ccc(-c2nn(C(C)C)c(N)c2C(N)=O)cc1 (single isomer, unassigned; isomer 2) [Example 76, 5-Amino-3-[4-(1-[[5-(3,3-difluoro-2-methylbutan-2-yl)-1,2-oxazol-3-yl]carbamoyl]ethyl)phenyl]-1-isopropylpyrazole-4-carboxamide, Isomer 2]
- EC50 [1]: < 100 nM
- EC50 [2]: < 100 nM

SMILES: CC(C(=O)Nc1cc(C(C)(C)C)sn1)c1ccc(-c2nn(C(C)C)c(N)c2C(N)=O)cc1 (single isomer, unassigned; isomer 2) [Example 80, 5-Amino-3-(4-[1-[(5-tert-butyl-1,2-thiazol-3-yl)carbamoyl]ethyl]phenyl)-1-isopropylpyrazole-4-carboxamide, isomer 2]
- EC50 [1]: < 100 nM
- EC50 [2]: < 100 nM

SMILES: CCC(C)(C)c1cc(NC(=O)C(C)c2ccc(-c3nn(C(C)C)c(N)c3C(N)=O)cn2)on1 (single isomer, unassigned; isomer 2) [Example 84, 5-Amino-1-isopropyl-3-[6-[2-[[3-(1,1-dimethylpropyl)isoxazol-5-yl]amino]-1-methyl-2-oxo-ethyl]-3-pyridyl]pyrazole-4-carboxamide, Isomer 2]
- EC50 [1]: < 100 nM
- EC50 [2]: < 100 nM

SMILES: CC(C(=O)Nc1cc(C(C)(C)C(F)(F)F)no1)c1ccc(-c2nn(C(C)C)c(N)c2C(N)=O)cn1 (single isomer, unassigned; isomer 2) [Example 90, 5-Amino-1-isopropyl-3-[6-[1-methyl-2-oxo-2-[[3-(2,2,2-trifluoro-1,1-dimethyl-ethyl)isoxazol-5-yl]amino]ethyl]-3-pyridyl]pyrazole-4-carboxamide, Isomer 2]
- EC50 [1]: < 100 nM
- EC50 [2]: < 100 nM
